Settings: Liquid

CCCCCCCCCC(=O)OC [methyl decanoate]
viscosity [mPa·s]
Settings	293.15 K	313.15 K	333.15 K	353.15 K
101.3 kPa, Falling or rolling sphere viscometry	2.15	1.46	1.07	0.825
101.3 kPa, Quartz crystal resonator	2.13	1.5	1.08	0.837
10000 kPa, Quartz crystal resonator	2.36	1.66	1.19	0.927
20000 kPa, Falling or rolling sphere viscometry	2.66	1.83	1.32	1.01
20000 kPa, Quartz crystal resonator	2.62	1.84	1.3	1.02
30000 kPa, Quartz crystal resonator	2.92	2	1.43	1.12
40000 kPa, Falling or rolling sphere viscometry	3.24	2.21	1.58	1.21
40000 kPa, Quartz crystal resonator	3.21	2.2	1.55	1.22
50000 kPa, Quartz crystal resonator	3.53	2.39	1.68	1.31
60000 kPa, Falling or rolling sphere viscometry	3.91	2.65	1.86	1.42
60000 kPa, Quartz crystal resonator	3.87	2.59	1.81	1.42
70000 kPa, Quartz crystal resonator	4.22	2.82	1.97	1.53
80000 kPa, Falling or rolling sphere viscometry	4.67	3.12	2.17	1.64
80000 kPa, Quartz crystal resonator	4.61	3.06	2.11	1.63
90000 kPa, Quartz crystal resonator	5.02	3.29	2.26	1.75
100000 kPa, Falling or rolling sphere viscometry	5.53	3.63	2.5	1.88
100000 kPa, Quartz crystal resonator	5.47	3.56	2.43	1.87
120000 kPa, Falling or rolling sphere viscometry	6.52	4.21	2.86	2.13
120000 kPa, Quartz crystal resonator	6.47	4.1	2.76	2.13
140000 kPa, Falling or rolling sphere viscometry	7.66	4.85	3.26	2.41
140000 kPa, Quartz crystal resonator	7.82	4.75	3.19	2.41
160000 kPa, Falling or rolling sphere viscometry	8.96	5.56	3.7	2.71
160000 kPa, Quartz crystal resonator	9.17	5.43	3.62	2.72
180000 kPa, Falling or rolling sphere viscometry	–	6.35	4.18	3.03
180000 kPa, Quartz crystal resonator	–	6.29	4.07	3.05
200000 kPa, Falling or rolling sphere viscometry	–	7.24	4.7	3.38
200000 kPa, Quartz crystal resonator	–	7.13	4.54	3.41
